Where two headings read alike, the source gives them in different places.
Test system: MIA PaCa-2 cells
Assay: 1,536-well high-content imaging ALDEFLUOR assay, MIA PaCa-2
Type: cell-based, human
Settings: for Activity in ALDEFLUOR assay, MIA PaCa-2: semi-automated, active = high quality concentration response curve and >50% efficacy, up to 45.8 μM
Protocol: To miniaturize the assay into a 1536-well format amenable to qHTS, we chose MIA PaCa-2 and HT-29 because of their high levels of ALDH1A1(Fig 1A). Utilizing the 8-step protocol described by Ming et al. as a starting point, we developed a “semi-automated” protocol described in S1 Table. Briefly, we plated 1,000 cells in a volume of 5 μL/well into black-optical quality clear bottom 1,536-well plates, and allowed cells to attach overnight. Culture media was subsequently removed by inverting and centrifuging plates using a plate adaptor as previously described and replaced with 5 μL of a solution of either 500 or 100 nM BAAA substrate in ALDEFLUOR buffer. To identify cells based on nuclear staining, we also included 0.5 nM Hoechst 33342 in the above buffer. […] After incubating the plate for 30 minutes at 37°C, 5% CO2, 85% RH, the remaining substrate was removed by centrifugation as above and replaced with 3 μL of ALDEFLUOR buffer. Fluorescence was subsequently imaged using the IN Cell Analyzer 2200 high-content widefield fluorescence based imager and the resulting images were quantified using the IN Cell Investigator v1.6.2 analysis software (see Experimental Procedures for analysis details).
The ALDEFLUOR kit was purchased from […] Technologies (Vancouver, Canada; #01700). Cells (5 μL) were dispensed into black, optical quality (cyclic olefin copolymer) clear bottom, medium binding TC treated 1,536-well plates (Aurora Microplates, Whitefish MT) using a Multidrop Combi dispenser (ThermoFisher) and incubated overnight (37°C, 5% CO2, 85% RH). Media was subsequently removed by centrifuging plates upside down using a plate adaptor to collect media. A solution of BAAA substrate ([…] Technologies) and Hoechst 33342 (ThermoFisher, final concentrations of 500 nM and 0.5 nM, respectively) in ALDEFLUOR buffer ([…] Technologies #01700) was dispensed onto cells using a Multidrop Combi followed by immediate transfer (23 nL) of compound or control solutions using a Wako Pin-tool (final percentage of DMSO in the cell plates was 0.5%). Unless otherwise noted, all compounds were assayed as 16-point dilutions spanning a final concentration range of 1.4 nM to […]. […] Cells were incubated for 30 minutes or the indicated amount of time at 37°C, 5% CO2, 85% RH to allow the conversion of BAAA into BAA. Supernatant was subsequently removed by centrifugation as described above, then ALDEFLUOR buffer (3 μl) was dispensed by Multidrop Combi before imaging on an IN Cell 2200 (GE Healthcare).
The above assay was modified for an online robotic screening system. After cell plating and overnight incubation, 4 μL of media were removed using a 64-tip metal aspirator head on a Wako aspirator station, leaving 1 μL remaining in the well, followed by a 4 μL dispense of BAAA and Hoechst 33342 in ALDEFLUOR buffer, for a final concentration of 500 nM and 0.5 nM, respectively. Immediately following the dispense, 23 nL of compound or control solutions were transferred using a Wako Pin-tool. Cells were incubated for 30 minutes at 37°C, 5% CO2, 85% RH, followed by a 4 μL media removal using the Wako aspirator, and a subsequent 3 μL addition of ALDEFLUOR buffer. Plates were then immediately read on the IN Cell 2200 as described below.
For images captured on the IN Cell 2200 widefield automated microscope, a 10x 0.45 NA Plan Apo objective lens was used to capture the entire well of the 1,536-well plate using standard DAPI (390/18x, 432/48m) and FITC (475/28x, 525/48m) filter sets at 50 msec and 100 msec exposures, respectively. Images were subsequently analyzed using IN Cell Investigator v1.6.2 analysis software’s canned Multi-Target Analysis algorithm (GE Healthcare). Hoechst stained nuclei were identified using top hat segmentation with a minimum area of 75 μm^2 and sensitivity of 93. […]

[1] = validation set, semi-automated protocol, 16-point dilution, 1,000 cells/well, 500 nM BAAA, 30 min, read-out: Aldefluor IC50 MIA PaCa-2
[2] = Homo sapiens, MIA PaCa-2, 0.5 h, validation set, semi-automated protocol, 16-point dilution, 1,000 cells/well, 500 nM BAAA, 30 min, read-out: Aldefluor IC50 MIA PaCa-2

| Compound | IC50 [1] | Activity in ALDEFLUOR assay, MIA PaCa-2 | other results |
| --- | --- | --- | --- |
| COc1ccc(C(=O)CCN(C)C)cc1F [Aldi-2] | 18 µM |  |  |
| Cc1nc2ccccc2n1S(=O)(=O)c1ccc(F)cc1 [CB7] |  | tested negative |  |
| COc1cccc2cc(C(=O)CC3(O)C(=O)N(Cc4ccccc4)c4ccccc43)c(=O)oc12 (stereo not shown) [CID 2929292] |  | tested negative |  |
| CC(C)=CCCC(C)=CC=O (mixture of isomers) [Citral] | 27.8 µM |  | IC50 [2]: ~27 µM |
| Cc1cc2c(C(C)C)c(O)c(O)c(C=O)c2c(O)c1-c1c(C)cc2c(C(C)C)c(O)c(O)c(C=O)c2c1O [Gossypol] |  | inactive |  |
| CVT-10216 |  | tested negative |  |
| CC(C)(C)c1ccc(S(=O)(=O)/C=C/C#N)cc1 [Bay-11-7085] | 20 µM |  |  |
| C[S+](=O)([O-])c1ccc(Cn2c3c(c4cc(F)cc(F)c42)CCCC3CC(=O)O)cc1 [L-670596] |  |  | IC50 (Homo sapiens, MIA PaCa-2, retest of screen hits, 11-point dose response 0.77 nM to 45.8 μM, read-out: ALDEFLUOR IC50 MIA PaCa2): ~10 µM; IC50 (retest of screen hits, 11-point dose response 0.77 nM to 45.8 μM, read-out: ALDEFLUOR IC50 MIA PaCa2): 10.8 µM |
| CC(C)N(C(=O)CCl)c1ccccc1 [Propachlor] |  |  | IC50 (Homo sapiens, MIA PaCa-2, read-out: ALDEFLUOR IC50 MIA PaCa2): 0.3 µM |
| CCOc1ccc(NCC(=O)Nc2ccc(Cl)cc2C)cc1 [CID 725345] | 9.46 µM |  |  |
| O=c1c(-c2ccc(O)cc2)coc2cc(O[C@@H]3O[C@H](CO)[C@@H](O)[C@H](O)[C@H]3O)ccc12 [Daidzin] |  | tested negative |  |
| CCN(CC)C(=S)SSC(=S)N(CC)CC [Disulfiram] |  |  | IC50 [2]: 11 µM |
| CCN(CC)c1ccc(C=O)cc1 [DEAB, 4-N,N-diethylaminobenzaldehyde] | 3.44 µM |  |  |
| O=C1Nc2ccccc2C1=O [indoline-2,3-dione] |  |  | IC50 [2]: 12 µM |
| Nc1ccccc1C(=O)CC(N)C(=O)O (stereo not shown) [Kynurenine] |  | tested negative |  |
| C#CCN(C)Cc1ccccc1 [Pargyline] |  | inactive | IC50 (Homo sapiens, MIA PaCa-2, fully automated protocol-2 with two washes, read-out: IC50 of BAA signal reduction, automated protocol): ~5 µM |

From paper PMC5271370, “A High-Content Assay Enables the Automated Screening and Identification of Small Molecules with Specific ALDH1A1-Inhibitory Activity” (PLoS ONE, 2017)
